Measurements taken from publication PMC11151873, “Cathelicidin-HG Alleviates Sepsis-Induced Platelet Dysfunction by Inhibiting GPVI-Mediated Platelet Activation” (Research, 2024).

Experiments:
[1] = tested on: lactate dehydrogenase (LDH); assay: Serum LDH activity in CLP mice; type: in vivo, Male BALB/c mice; details: i.p. 2 h after CLP; Cath-HG 1.25, 2.5, 5 mg/kg or clopidogrel 20 mg/kg; n = 4
Experimental: (§1) CLP-induced sepsis was performed based on our previous method with minor modifications. Briefly, under sterile conditions, the cecum of anesthetized mice was exposed and tightly ligated approximately 1 cm from the end. Then, the cecum was punctured twice at different mid-points with a 22-gauge needle, gently squeezed to extrude a small amount of fecal matter, returned into the peritoneal cavity which was sutured. Finally, the mice underwent resuscitation through the administration of 1 ml of preheated physiological saline via subcutaneous injection. […] Clopidogrel (20 mg/kg) was administered as a positive control, and blank control mice underwent sham surgery and received saline. All mice were monitored for 72 h after the induction of CLP. Another group of mice underwent the same procedure described above. Twenty-four hours after the surgery, the mice were euthanized, and blood, heart, liver, spleen, lung, and kidney samples were collected for subsequent analysis.
For platelet count determination, blood was collected in EDTA and analyzed using a PE-6800 Fully Auto Hematology Analyzer (Prokan, Shenzhen, China). […] TPO levels were determined by ELISA, and LDH activity was measured using an LDH assay kit.

CLP septic mice [2] = assay: Microvascular thrombosis by fluorescent bead imaging in CLP mice; type: in vivo, Male BALB/c mice; details: lungs, liver, kidneys; i.p. 2 h after CLP; Cath-HG 1.25, 2.5, 5 mg/kg or clopidogrel 20 mg/kg
Experimental: as §1

CLP septic mice [3] = assay: Bacterial loads in organs of CLP mice; type: in vivo, Male BALB/c mice; details: heart, liver, spleen, lung, kidney; 24 h after CLP; i.p. Cath-HG 1.25, 2.5, 5 mg/kg or clopidogrel 20 mg/kg
Experimental: as §1

[4] = tested on: phosphorylation of Src, Syk, PLCγ2, and Akt; assay: Western blot: phosphorylation of GPVI downstream proteins in collagen-stimulated platelets; type: cell-based, mice; details: washed platelets, Cath-HG 5, 10, 20 μM 5 min, n = 3, or dasatinib (Src inhibitor)
Experimental: The platelets were lysed with radioimmunoprecipitation assay buffer containing protease inhibitor and phosphatase inhibitor cocktails, and the protein concentration was determined with a bicinchoninic acid protein assay kit before SDS-polyacrylamide gel electrophoresis separation and polyvinylidene difluoride (PVDF) membrane transferring. The membranes were incubated with corresponding primary antibodies overnight at 4 °C and appropriate horseradish peroxidase-conjugated secondary antibodies at room temperature for 1 h after being blocked with 5% skimmed milk at room temperature for 1 h. Finally, the results were recorded using a FluorChem R chemiluminescence imaging system (ProteinSimple, CA, USA) and analyzed using ImageJ software.

[5] = molecular target: platelet glycoprotein VI (mouse (endogenous in mouse platelets)) (UniProt P0C191)
FeCl3-injured mice = assay: FeCl3-induced carotid artery thrombosis model; type: in vivo, Male BALB/c mice; details: FeCl3 10% (w/v), i.v. 30 min before injury, Cath-HG 5 mg/kg or heparin 1,000 U/kg
Experimental: The carotid artery thrombus experiment was carried out as described by Zhang et al. […] Anesthesia was induced with 2.0% isoflurane before the left carotid artery was exposed through a midline neck incision. A small piece of filter paper (2 mm × 1 mm) saturated with 10% (w/v) FeCl3 solution was placed on the carotid artery for 5 min to induce thrombus formation. The filter paper was then removed, and the artery was washed with saline. The carotid blood flow and occlusion time were measured to evaluate thrombus formation with the RFLSI Pro+ laser speckle blood flow imaging system (RWD, Shenzhen, China).

Chain of UniProt P0C191 (P0C191 22-313): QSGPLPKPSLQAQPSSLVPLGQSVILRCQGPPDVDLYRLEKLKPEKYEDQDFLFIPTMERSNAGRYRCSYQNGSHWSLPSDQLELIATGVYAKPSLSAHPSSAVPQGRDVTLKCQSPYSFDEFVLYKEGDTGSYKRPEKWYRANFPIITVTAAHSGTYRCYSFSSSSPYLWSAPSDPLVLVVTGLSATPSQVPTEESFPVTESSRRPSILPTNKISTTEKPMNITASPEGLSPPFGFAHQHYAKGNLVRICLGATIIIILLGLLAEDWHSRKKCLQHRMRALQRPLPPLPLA

COC(=O)[C@H](c1ccccc1Cl)N1CCc2sccc2C1 [clopidogrel]
LDH activity in serum [1]: significantly decreased after Cath-HG or clopidogrel treatment | microvascular thrombosis (fluorescence of beads) (CLP septic mice [2]): reduced the fluorescence levels of lungs, liver, and kidneys | bacterial load in organs (CLP septic mice [3]): reduced the bacterial burden in the organs of CLP mice

Cc1nc(Nc2ncc(C(=O)Nc3c(C)cccc3Cl)s2)cc(N2CCN(CCO)CC2)n1 [dasatinib]
collagen-induced phosphorylation of GPVI downstream proteins (Src, Syk, PLCγ2, Akt) [4]: completely inhibited

Cathelicidin-HG (peptide)
inhibition of platelet aggregation in platelet-rich plasma induced by the GPVI-specific agonist convulxin (0.6 nM); Cath-HG 5, 10 and 20 μM, value at 20 μM [5]: 63.2%

heparin
carotid blood flow (FeCl3-injured mice; laser speckle imaging): significantly increased blood flow | mean occlusion time of carotid artery (FeCl3-injured mice; n = 3, mean ± SD, control 2.9 ± 0.3 min): 5.4 ± 0.3 min
